The source of these data is US20170280720A1, “ARGININE […] INHIBITORS AND USES THEREOF” (EPIZYME, INC., priority 2014, published 2017).

The target in one assay is T1, Human CARM1 (PRMT4) (Homo sapiens, UniProt Q86X55).
T1 construct: Flag-CARM1-His; made in house; host or cells: HEK 293F cells (BacMam baculovirus, pFastBacMam)
T1 sequence (Q86X55 2-585 isoform Q86X55-1): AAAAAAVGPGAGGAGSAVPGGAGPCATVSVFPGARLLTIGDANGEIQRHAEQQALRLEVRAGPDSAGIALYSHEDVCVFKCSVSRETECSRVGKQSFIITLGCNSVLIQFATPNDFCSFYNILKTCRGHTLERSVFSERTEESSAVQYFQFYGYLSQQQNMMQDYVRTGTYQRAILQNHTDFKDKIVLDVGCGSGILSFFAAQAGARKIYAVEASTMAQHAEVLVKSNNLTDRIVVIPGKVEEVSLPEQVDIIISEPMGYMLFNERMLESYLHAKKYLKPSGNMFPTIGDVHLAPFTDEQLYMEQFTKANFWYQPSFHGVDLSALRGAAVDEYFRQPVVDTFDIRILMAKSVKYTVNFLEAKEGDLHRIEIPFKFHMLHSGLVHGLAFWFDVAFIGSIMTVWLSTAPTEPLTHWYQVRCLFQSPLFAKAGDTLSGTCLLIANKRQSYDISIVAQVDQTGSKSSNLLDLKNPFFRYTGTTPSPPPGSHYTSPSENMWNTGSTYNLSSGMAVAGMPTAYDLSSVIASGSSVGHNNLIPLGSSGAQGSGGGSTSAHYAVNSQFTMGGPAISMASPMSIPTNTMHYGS
The assay can be described thus: CARM1 biochemical assay (3H-SAM Flashplate, peptide substrate). Conditions: read-out: CARM1_ IC50. A digest of the protocol: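 FLAG/His-tagged human CARM1 (isoform 1, Δ539-561, baculovirus-expressed), 0.25 nM, preincubated 30 min at room temperature with compound (2% DMSO) in 20 mM Bicine pH 7.6, then reacted with 30 nM 3H-SAM and 250 nM biotinylated H3 16-30 peptide (R26 monomethyl). Stopped with 300 uM cold SAM; labelled peptide captured on streptavidin Flashplate; % inhibition versus DMSO and 1 mM SAH controls fitted to a 4- or 3-parameter curve.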

Assay [1] relates to asymmetric di-methyl PABP1 in RKO cells. Kind of assay: In Cell Western (ICW) for asymmetric di-methyl PABP1 and DNA content in RKO cells. In kind it is cell-based. As to conditions: Homo sapiens, RKO, In Cell Western. An excerpt:
RKO adherent cells were purchased from ATCC (American Type Culture Collection), Manassas, Va., USA. DMEM/Glutamax medium, penicillin-streptomycin, heat inactivated fetal bovine serum, 0.05% trypsin and D-PBS were purchased from Life Technologies, Grand Island, N.Y., USA. Odyssey blocking buffer, 800CW goat anti-rabbit IgG (H+L) antibody, and Licor Odyssey infrared scanner were purchased from Licor Biosciences, Lincoln, Nebr., USA. Mono-methyl arginine antibody was purchased from Cell Signaling Technology, Danvers, Mass., USA. Methanol was purchased from VWR, Franklin, Mass., USA. 10% Tween 20 was purchased from KPL, Inc., Gaithersburg, Md., USA. […] was purchased from Biostatus Limited, Leicestershire, UK. RKO adherent cells were maintained in growth medium (DMEM/Glutamax medium supplemented with 10% v/v heat inactivated fetal bovine serum and 100 units/mL penicillin-streptomycin) and cultured at 37° C. under 5% CO2. Cell Treatment, in Cell Western (ICW) for Detection of Asymmetric Di-Methyl PABP1 and DNA Content. RKO cells were seeded in assay medium at a concentration of 30,000 cells per mL to a poly-D-lysine coated 384 well culture plate (BD Biosciences 356697) with 50 μL per well. Compound (100 nL) from a 96-well source plate was added directly to 384 well cell plate. Plates were incubated at 37° C., 5% CO2 for 48 hours. After two days of incubation, plates were brought to room temperature outside of the incubator for ten minutes and blotted on paper towels to remove cell media. Cells were fixed for 20 minutes at room temperature by adding 50 μl of 8% PFA followed by aspiration of supernatant with the Biotek EL406 plate washer. Cells were then permeabilized by addition of 50 μL of ice cold 100% methanol directly to each well and incubated for 30 min at room temperature. After 30 min, plates were transferred to a Biotek EL406 plate washer and washed 2 times with 100 μL per well of wash buffer (1×PBS). Next 60 μL per well of Odyssey blocking buffer (Odyssey Buffer with 0.1% Tween 20 (v/v)) were added to each plate and incubated 1 hour at room temperature. Blocking buffer was removed and 20 μL per well of primary antibody was added (asymmetric-methyl PABP1) diluted 1:400 in Odyssey buffer with 0.1% Tween 20 (v/v)) and plates were incubated overnight (16 hours) at 4° C. Plates were washed 5 times with 100 μL per well of wash buffer. Next 20 μL per well of secondary antibody was added (1:800 800CW goat anti-rabbit IgG (H+L) antibody, 1:2000 DRAQS in Odyssey buffer with 0.1% Tween 20 (v/v)) and incubated for 1 hour at room temperature. The plates were washed 5 times with 100 μL per well wash buffer then 2 times with 100 μL per well of water. Plates were allowed to dry at room temperature then imaged on the Licor Odyssey machine which measures integrated intensity at 700 nm and 800 nm wavelengths. Both 700 and 800 channels were scanned. Calculations: First, the ratio for each well was determined by: Each plate included fourteen control wells of DMSO only treatment (minimum inhibition) as well as fourteen control wells for maximum inhibition treated with 20 μM of a reference compound. The average of the ratio values for each control type was calculated and used to determine the percent activation for each test well in the plate. Reference compound was serially diluted three-fold in DMSO for a total of nine test concentrations, beginning at 20 μM. Percent inhibition was determined and IC50 curves were generated using triplicate wells per concentration of compound.

The structures appear in SMILES notation.

For orientation: IC50 means the point on the concentration scale where inhibition reaches its midpoint. `CC(C)n1ncc2c(C(=O)NCc3cn(C)cn3)cc(-c3cccc(CN(C)CCN)c3)nc21` [Compound 262]: the half-inhibitory concentration (IC50) turned out to be 70.2 nM on Human CARM1 (PRMT4) and 10200 nM in assay [1].
Turning to `CNCCN(C)Cc1cccc(-c2cc(C3=CCOCC3)c3cnn(C(C)C)c3n2)c1` [Compound 188], the values for the IC50 (on Human CARM1 (PRMT4); in assay [1]) were 12.3 nM and 8310 nM, respectively.
For the molecule `CC(C)n1ncc2c(C(=O)NCc3cnc[nH]3)cc(-c3cccc(CN(C)CCN)c3)nc21` [Compound 206], the concentration for half-maximal inhibition (IC50) on Human CARM1 (PRMT4) was 19.7 nM; in assay [1] it was 20000 nM.
The matching figures for `CNCCN(C)Cc1cccc(-c2cc(C(=O)NCc3cccc4ccnn34)c3cnn(C(C)C)c3n2)c1` [Compound 232]: 42.4 nM and 1510 nM.
With `CC(C)n1ncc2c(C(=O)NCc3cccc4ccnn34)cc(-c3cccc(CN(C)CCN)c3)nc21` [Compound 197], the IC50 is 15 nM at Human CARM1 (PRMT4) and 1660 nM in assay [1].
For `CC(C)n1ncc2c(C(=O)NCc3ccncc3)cc(-c3cccc(CN(C)CCN)c3)nc21` [Compound 172], the half-inhibitory concentration (IC50) at Human CARM1 (PRMT4) was 5.67 nM; in assay [1] it was 3140 nM.
The corresponding values for `CC(C)n1ncc2c(C(=O)NC3CCOC3)cc(-c3cccc(CN(C)CCN)c3)nc21` (stereo not shown) [Compound 202] are 19.1 nM and 1990 nM.
With `CC(C)n1ncc2c(C(=O)NCc3cncn3C)cc(-c3cccc(CN(C)CCN)c3)nc21` [Compound 185], the results for the IC50 (on Human CARM1 (PRMT4); in assay [1]) were 11.7 nM and 10800 nM, respectively.
`CC(C)n1ncc2c(C(=O)NC3CC3)cc(-c3cccc(CN(C)CCN)c3)nc21` [Compound 210]: the IC50 on Human CARM1 (PRMT4) turned out to be 22.4 nM; in assay [1] it was 2000 nM.
The matching figures for `CN(CCN)Cc1cccc(-c2ccc(C(=O)NC3CCOCC3)c(N(C)CC3CC3)c2)c1` [Compound 245]: 53.6 nM and 20000 nM.
In the case of `CN(CCN)Cc1cccc(-c2cc(C(=O)NCC3CCOCC3)cc(N(C)CC3CC3)c2)c1` [Compound 208], the IC50 on Human CARM1 (PRMT4) is 20.7 nM; in assay [1] it was 5540 nM.
As for `CC(C)n1ncc2c(C(=O)N(C)Cc3ccccc3)cc(-c3cccc(CNCCN)c3)nc21` [Compound 238], the IC50 turned out to be 48.1 nM on Human CARM1 (PRMT4) and 20000 nM in assay [1].
For `CNCCN(C)Cc1cccc(-c2cc(C(=O)NCc3cccnc3)c3cnn(C(C)C)c3n2)c1` [Compound 199], the IC50 worked out at 15.9 nM at Human CARM1 (PRMT4) and 2180 nM in assay [1].
The matching figures for `CC(C)n1ncc2c(C(=O)N3CCC3)cc(-c3cccc(CN(C)CCN)c3)nc21` [Compound 201]: 18.2 nM and 3050 nM.
For the molecule `CC(C)n1ncc2c(C(=O)NCc3nccn3C)cc(-c3cccc(CN(C)CCN)c3)nc21` [Compound 215], the IC50 stood at 29.1 nM on Human CARM1 (PRMT4) and 2240 nM in assay [1].
Regarding `CC(C)n1ncc2c(C(=O)N(C)C3CCOCC3)cc(-c3cccc(CN(C)CCN)c3)nc21` [Compound 265], the results for the IC50 (on Human CARM1 (PRMT4); in assay [1]) were 74.4 nM and 10300 nM, respectively.
Turning to `CNCCN(C)Cc1cccc(-c2cc(-c3ccc(F)cc3)c3cnn(C(C)C)c3n2)c1` [Compound 275], the IC50 stood at 92.8 nM at Human CARM1 (PRMT4) and 20000 nM in assay [1].
Turning to `COC1CCN(C(=O)c2cc(-c3cccc(CN(C)CCN)c3)nc3c2cnn3C(C)C)C1` (stereo not shown) [Compound 274], the results for the IC50 (on Human CARM1 (PRMT4); in assay [1]) were 89.3 nM and 20000 nM, respectively.
Regarding `Cc1c(CNC(=O)c2cc(-c3cccc(CN(C)CCN)c3)nc3c2cnn3C(C)C)cnn1C` [Compound 183], the IC50 stood at 11.6 nM on Human CARM1 (PRMT4) and 1970 nM in assay [1].
`CC(C)n1ncc2c(NC(=O)NC3CCOCC3)cc(-c3cccc(CN(C)CCN)c3)nc21` [Compound 175]: the figures for the IC50 (on Human CARM1 (PRMT4); in assay [1]) were 6.94 nM and 11500 nM, respectively.
Turning to `CC(C)n1ncc2c(-c3ccco3)cc(-c3cccc(CN(C)CCN)c3)nc21` [Compound 198], the half-maximal inhibitory concentration (IC50) on Human CARM1 (PRMT4) came to 15.1 nM; in assay [1], 20000 nM.
The corresponding values for `CNCCN(C)Cc1cccc(-c2cc(C(=O)NC3CCOCC3)c3cnn(C)c3n2)c1` [Compound 284] are 137 nM and 20000 nM.
Take `CCCc1cc(-c2cccc(CN(C)CCNC)c2)nc2c1cnn2C(C)C` [Compound 239]: the IC50 amounted to 49 nM at Human CARM1 (PRMT4) and 20000 nM in assay [1].
Consider `CNCCN(C)Cc1cccc(-c2cc(C(=O)N(C)CC3CCOCC3)c3cnn(C(C)C)c3n2)c1` [Compound 298], for which the IC50 was found to be 200 nM at Human CARM1 (PRMT4) and 9620 nM in assay [1].
Regarding `CNCCN(C)Cc1cccc(-c2cc(C(=O)N(C)Cc3cccnc3)c3cnn(C(C)C)c3n2)c1` [Compound 294], the IC50 on Human CARM1 (PRMT4) is 177 nM; in assay [1], 4020 nM.
Take `CNCCN(C)Cc1cccc(-c2cc(C(=O)N3CCC3)c3cnn(C(C)C)c3n2)c1` [Compound 252]: the IC50 on Human CARM1 (PRMT4) is 59.3 nM; in assay [1], 20000 nM.
For the molecule `CCN(Cc1cccnc1)C(=O)c1cc(-c2cccc(CN(C)CCN)c2)nc2c1cnn2C(C)C` [Compound 211], the values for the IC50 (on Human CARM1 (PRMT4); in assay [1]) were 23.9 nM and 3250 nM, respectively.
The matching figures for `CCn1ncc2c(C(=O)NC3CCOCC3)cc(-c3cccc(CN(C)CCNC)c3)nc21` [Compound 253]: 61.3 nM and 6090 nM.
`CNCCN(C)Cc1cccc(-c2cc(N3CCCC3)c3cnn(C(C)C)c3n2)c1` [Compound 214]: the IC50 on Human CARM1 (PRMT4) was 26.6 nM; in assay [1], 20000 nM.
Take `CNCCN(C)Cc1cccc(-c2cc(C(F)(F)F)c3cnn(C(C)C)c3n2)c1` [Compound 293]: the half-inhibitory concentration (IC50) worked out at 173 nM on Human CARM1 (PRMT4) and 17600 nM in assay [1].
For `CNCCN(C)Cc1cccc(-c2cc(C(=O)NC3CCOCC3)c3cnn(C(C)C)c3n2)c1` [Compound 233, 1-isopropyl-6-(3-((methyl(2-(methylamino)ethyl)amino)methyl)phenyl)-N-(tetrahydro-2H-pyran-4-yl)-1H-pyrazolo[3,4-b]pyridine-4-carboxamide], the results for the IC50 (at Human CARM1 (PRMT4); in assay [1]) were 42.6 nM and 843 nM, respectively.
For `Cc1c(N(C)CC2CC2)cc(-c2cccc(CN(C)CCN)c2)cc1N1CCOCC1` [Compound 241], the results for the IC50 (at Human CARM1 (PRMT4); in assay [1]) were 51 nM and 5690 nM, respectively.
For the molecule `CNCCN(C)Cc1cccc(-c2cc(C(=O)N(C)C3CC3)c3cnn(C(C)C)c3n2)c1` [Compound 292], the results for the IC50 (on Human CARM1 (PRMT4); in assay [1]) were 171 nM and 14000 nM, respectively.
`CNCCN(C)Cc1cccc(-c2cc(C(=O)N[C@@H](C)c3ccccc3)c3cnn(Cc4ccncc4)c3n2)c1` [Compound 260]: the values for the IC50 (at Human CARM1 (PRMT4); in assay [1]) were 68.2 nM and 20000 nM, respectively.
As for `CNCCN(C)Cc1cccc(-c2cc(OC3CCOCC3)c3cnn(C(C)C)c3n2)c1` [Compound 187], the IC50 on Human CARM1 (PRMT4) was 12 nM; in assay [1], 6090 nM.
